Here are results for 6 compounds from patent US20250152585A1, “PHARMACEUTICAL COMPOUND” (Duke Street Bio Limited, priority 2022, published 2025).

Molecules are shown by their SMILES. Like-named read-outs stand apart in the source and are kept apart here.

Series [1] deals with PARP1. To be noted: Johannes et al. J. Med. Chem. 2021; cited from earlier work.
The conditions of series [2]: rodent models; compared with first-generation PARP inhibitors; Illuzzi et al. 2022; cited from earlier work.
In series [3] the target is T1, full length N-terminally FLAG-tagged PARP1 (Homo sapiens, UniProt P09874). Briefly: PARP1 probe displacement HTRF assay. To be noted: for Kd: binned Kd; for Selectivity: PARP1 over PARP2, ratio Kd (PARP2)/Kd (PARP1). Background: TR-FRET usually uses a lanthanide donor and a delayed reading to cut background.
The target of series [4] is T2, N-terminally FLAG-tagged PARP2 (amino acids 1-583) (Homo sapiens, UniProt Q9UGN5).
T2 construct: N-terminally FLAG-tagged PARP2 (amino acids 1-583)
As to the kind of experiment: PARP2 probe displacement HTRF assay. The series is classed as binding. To be noted: binned Kd. How it is done:
Data analysis was performed identical as for PARP1.

For series [5], the target named is T1, full length N-terminally FLAG-tagged PARP1. As to the kind of experiment: PARP1 biochemical DELFIA assay (auto-PARylation). The arrangement: recombinant full length human N-terminally FLAG-tagged PARP1.
In series [6] the target is T3, PARP1 (Homo sapiens, UniProt P09874).
T3 construct: host or cells: HEK293
Briefly: NanoBRET cellular target occupancy assay, PARP1. Format: cell-based. To be noted: for Kd: HEK293 cells transiently transfected with PARP1-NanoLuc fusion, tracer 11 nM, 2 hours at 37° C., Kd by Cheng-Prussoff; for Selectivity: NanoBRET, PARP1 over PARP2, Kd (PARP2)/Kd (PARP1).

The next series has as its target T4, PARP2 (Homo sapiens, UniProt Q9UGN5).
T4 construct: host or cells: HEK293
Briefly: NanoBRET cellular target occupancy assay, PARP2. To be noted: HEK293 cells transiently transfected with PARP2-NanoLuc fusion; tracer 2 nM; 2 hours at 37° C.; Kd by Cheng-Prussoff. The series is classed as cell-based. The source says:
NanoBRET Cellular Target Occupancy Assay
(In general: BRET reads energy transfer from a luciferase to a nearby fluorophore.)

[7] abbreviates: PARP1 HTRF, probe displacement HTRF.
[8] abbreviates: binned IC50, biochemical auto-PARylation assay.
The mark [9] stands for this setting: read-out: PARP1 HTRF, probe displacement HTRF.

T3 sequence (P09874 whole entry): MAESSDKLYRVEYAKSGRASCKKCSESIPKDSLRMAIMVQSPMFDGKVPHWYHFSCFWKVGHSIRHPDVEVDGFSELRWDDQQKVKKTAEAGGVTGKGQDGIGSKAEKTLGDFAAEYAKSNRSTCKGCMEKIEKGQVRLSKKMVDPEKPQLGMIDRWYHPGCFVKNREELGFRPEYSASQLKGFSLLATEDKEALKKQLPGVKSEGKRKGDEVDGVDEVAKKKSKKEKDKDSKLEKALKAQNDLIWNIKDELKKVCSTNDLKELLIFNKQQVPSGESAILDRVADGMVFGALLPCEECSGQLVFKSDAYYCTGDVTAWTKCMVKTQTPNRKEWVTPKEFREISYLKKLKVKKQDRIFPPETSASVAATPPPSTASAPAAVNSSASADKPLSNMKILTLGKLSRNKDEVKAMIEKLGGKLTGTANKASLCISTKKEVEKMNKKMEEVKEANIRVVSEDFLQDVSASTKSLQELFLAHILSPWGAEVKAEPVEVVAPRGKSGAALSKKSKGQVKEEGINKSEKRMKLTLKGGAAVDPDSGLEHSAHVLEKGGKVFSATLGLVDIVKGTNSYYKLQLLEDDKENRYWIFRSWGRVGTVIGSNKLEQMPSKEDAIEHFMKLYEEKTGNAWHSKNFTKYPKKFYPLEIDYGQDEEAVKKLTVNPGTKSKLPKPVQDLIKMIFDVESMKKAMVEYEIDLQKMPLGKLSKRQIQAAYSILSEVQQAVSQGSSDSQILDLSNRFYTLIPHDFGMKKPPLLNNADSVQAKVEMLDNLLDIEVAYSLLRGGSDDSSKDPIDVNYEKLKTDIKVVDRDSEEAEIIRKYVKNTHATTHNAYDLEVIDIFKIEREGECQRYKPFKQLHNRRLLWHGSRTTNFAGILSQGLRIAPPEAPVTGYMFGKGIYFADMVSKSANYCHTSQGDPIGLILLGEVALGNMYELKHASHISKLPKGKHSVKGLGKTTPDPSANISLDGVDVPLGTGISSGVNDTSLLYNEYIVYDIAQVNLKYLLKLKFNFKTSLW
T1 sequence (P09874 whole entry, the tested form may be a part): as the sequence (P09874 whole entry) above
T2 sequence (Q9UGN5 whole entry, the tested form may be a part): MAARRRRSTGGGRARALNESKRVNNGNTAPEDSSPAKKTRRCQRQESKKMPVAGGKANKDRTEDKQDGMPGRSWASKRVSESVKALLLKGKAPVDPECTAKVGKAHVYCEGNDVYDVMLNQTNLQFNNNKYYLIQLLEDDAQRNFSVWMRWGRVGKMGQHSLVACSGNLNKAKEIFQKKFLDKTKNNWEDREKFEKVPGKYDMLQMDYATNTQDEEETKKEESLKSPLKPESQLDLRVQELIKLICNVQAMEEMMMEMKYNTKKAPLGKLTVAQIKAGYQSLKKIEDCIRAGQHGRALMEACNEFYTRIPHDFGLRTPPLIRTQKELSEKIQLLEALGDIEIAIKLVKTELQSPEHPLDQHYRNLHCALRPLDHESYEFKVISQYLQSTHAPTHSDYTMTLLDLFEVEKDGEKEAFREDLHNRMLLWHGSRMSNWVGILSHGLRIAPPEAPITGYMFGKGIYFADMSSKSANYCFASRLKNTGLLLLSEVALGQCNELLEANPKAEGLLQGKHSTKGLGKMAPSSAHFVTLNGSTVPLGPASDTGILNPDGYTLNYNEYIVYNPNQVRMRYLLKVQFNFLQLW
T4 sequence (Q9UGN5 whole entry): as the sequence (Q9UGN5 whole entry, the tested form may be a part) above

`CCc1cc2ncc(CN3CCN(c4ccc(C(=O)NC)nc4)CC3)cc2[nH]c1=O` [AZD5305]: the “selectivity over PARP2” value in the series on PARP1 [1] is listed as 500 fold. Also, in series [2], the haematotoxicity entry was “significantly less haematotoxicity”.

For `CNC(=O)c1ccc(N2CCC(N3CC4(c5nc6c(c(=O)[nH]5)CCCN6C)CC3C4)CC2)cn1` [Compound 330], the Kd in series [3] (setting [7]) was below 10 nM; in series [4] (probe displacement HTRF) it was 10 to 100 nM; on PARP1 [6], 10 to 100 nM; at PARP2, 100 to 1000 nM. Moreover, the Selectivity entry (in series [3] (probe displacement HTRF); at PARP1 [6]) was “+ (+ indicates a value of 10 to less than 50)” in each case. Besides, in series [5] (setting [8]), the IC50 is below 10 nM.

With `CCc1ccc(C2CCN(C3CCN(c4ccc(C(=O)NC)nc4F)CC3)C2)[nH]c1=O` (single isomer, unassigned) [Compound 151a, 5-(4-(3-(5-ethyl-6-oxo-1,6-dihydropyridin-2-yl)pyrrolidin-1-yl)piperidin-1-yl)-6-fluoro-N-methylpicolinamide], the Kd in series [3] (PARP1 HTRF, PARP1 probe displacement HTRF) was below 10 nM; in series [4] (PARP2 probe displacement HTRF) it was 100 to 1000 nM; on PARP1 [6], below 10 nM; on PARP2, above 10000 nM. Besides, the Selectivity result (in series [3] (probe displacement HTRF); on PARP1 [6]) was “+++ (+++ indicate a value of at least 100)” in each case. Moreover, the IC50 in series [5] (binned IC50, PARP1 biochemical DELFIA assay) was below 10 nM.

On to `CCc1cnc(C23CC(C2)N(C2CCN(c4ccc(C(=O)NC)nc4)CC2)C3)[nH]c1=O` [Compound 299, 5-(4-(4-(5-ethyl-6-oxo-1,6-dihydropyrimidin-2-yl)-2-azabicyclo[2.1.1]hexan-2-yl)piperidin-1-yl)-N-methylpicolinamide], for which the Kd is below 10 nM in series [3] (setting [7]), above 10000 nM in series [4] (probe displacement HTRF), 10 to 100 nM on PARP1 [6] and above 10000 nM on PARP2. The Selectivity entry (in series [3] (probe displacement HTRF); on PARP1 [6]) was “+++ (+++ indicate a value of at least 100)” in each case. Moreover, in series [5] (setting [8]), the 50% inhibitory concentration (IC50) was below 10 nM.

`CNC(=O)c1ccc(N2CCC(N3CCC(c4[nH]c(=O)c5ccccc5c4F)C3)CC2)cn1` (racemic) [Compound 258rac]: the Selectivity entry (in series [3] (probe displacement HTRF); at PARP1 [6]) was “+++ (+++ indicate a value of at least 100)” throughout. For the same compound, the Kd in series [3] (setting [9]) was below 10 nM; in series [4] (probe displacement HTRF), 100 to 1000 nM; at PARP1 [6], below 10 nM; on PARP2 it was 100 to 1000 nM. Also, the half-maximal inhibitory concentration (IC50) in series [5] (setting [8]) is below 10 nM.

`N#Cc1ccc(N2CCC(N3CCC(c4cc5cccc(F)c5c(=O)[nH]4)C3)CC2)cc1` (single isomer, unassigned) [Compound 314b]: the Selectivity entry (in series [3] (probe displacement HTRF); on PARP1 [6]) was “+++ (+++ indicate a value of at least 100)” each time. In addition, the Kd in series [3] (setting [9]) is below 10 nM; in series [4] (probe displacement HTRF), 100 to 1000 nM; on PARP1 [6] it was below 10 nM; at PARP2, 100 to 1000 nM. The IC50 in series [5] (setting [8]) is below 10 nM.

The IC50 is the midpoint of a concentration-inhibition curve.
